From the supplement of paper PMC11061612

Assays:
Experiment in all cases: Bliss excess, mean over the matrix (fraction); higher = more synergy
[1] = system: CHSA8926 (Chondrosarcoma)
Method in brief: (§1)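 Bliss excess equals the observed combination effect minus the expected value EA + EB − EA·EB, where EA and EB are the effects of each agent alone. Combination Emax is the second-highest inhibition within the matrix. Inhibition was scaled from CellTiter-Glo 2.0 luminescence, with 0 set by vehicle wells and 1 by blank wells, after 72 hours of two-drug dosing of cells plated in 1536-well plates.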

[2] = system: DAN-G (Pancreatic Carcinoma)
Method in brief: as §1

[3] = system: ESO51 (Esophageal Adenocarcinoma)
Method in brief: as §1

[4] = system: HCC1187 (Breast Carcinoma)
Method in brief: as §1

[5] = system: HCC1419 (Breast Carcinoma)
Method in brief: as §1

[6] = system: IM-95 (Gastric Carcinoma)
Method in brief: as §1

[7] = system: KMS-12-BM (Plasma Cell Myeloma)
Method in brief: as §1

[8] = system: KP-3 (Pancreatic Carcinoma)
Method in brief: as §1

[9] = system: KYSE-270 (Esophageal Squamous Cell Carcinoma)
Method in brief: as §1

[10] = system: M059J (Glioblastoma)
Method in brief: as §1

[11] = system: MN-60 (B-Lymphoblastic Leukemia)
Method in brief: as §1

[12] = system: MOLM-13 (Acute Myeloid Leukemia)
Method in brief: as §1

[13] = system: NCI-H2731 (Mesothelioma)
Method in brief: as §1

[14] = system: NCI-H520 (Squamous Cell Lung Carcinoma)
Method in brief: as §1

[15] = system: NCI-H526 (Small Cell Lung Carcinoma)
Method in brief: as §1

[16] = system: SJSA-1 (Osteosarcoma)
Method in brief: as §1

[17] = system: SK-GT-2 (Gastric Carcinoma)
Method in brief: as §1

[18] = system: SNU-398 (Hepatocellular Carcinoma)
Method in brief: as §1

[19] = system: ST486 (Burkitt's Lymphoma)
Method in brief: as §1

[20] = system: T-T (Esophageal Squamous Cell Carcinoma)
Method in brief: as §1

Structure (SMILES)	Bliss excess [1]	Bliss excess [2]	Bliss excess [3]	Bliss excess [4]	Bliss excess [5]	Bliss excess [6]	Bliss excess [7]	Bliss excess [8]	Bliss excess [9]	Bliss excess [10]	Bliss excess [11]	Bliss excess [12]	Bliss excess [13]	Bliss excess [14]	Bliss excess [15]	Bliss excess [16]	Bliss excess [17]	Bliss excess [18]	Bliss excess [19]	Bliss excess [20]
C=CCn1c(=O)c2cnc(Nc3ccc(N4CCN(C)CC4)cc3)nc2n1-c1cccc(C(C)(C)O)n1 [AZD1775] + O=C(c1cc(Cc2n[nH]c(=O)c3ccccc23)ccc1F)N1CCN(C(=O)C2CC2)CC1 [Olaparib] (first compound max 1 µM, partner max 10 µM)	-0.0167	-0.0142	-0.0917	0.0546	-0.047	-0.0047	-0.0239	-0.0118	-0.0166	0.0374	-0.0143	0.0405	-0.0438	-0.0057	-0.0152	-0.0262	-0.0139	-0.0396	-0.0197	-0.002
COc1cccc(OCCCN)c1-c1cc(Nc2cnc(C#N)cn2)n[nH]1 [Prexasertib] + C=CCn1c(=O)c2cnc(Nc3ccc(N4CCN(C)CC4)cc3)nc2n1-c1cccc(C(C)(C)O)n1 [AZD1775] (first compound max 1 µM, partner max 1 µM)	-0.0416	-0.0093	-0.0153	0.102	-0.0136	0.0876	0.0595	-0.0138	0.217	0.178	0.0534	0.036	0.0338	0.0421	0.0502	-0.0243	0.0286	0.0254	0.0276	0.208
Cc1cc2ncnn2cc1Nc1ncc2c(n1)n(C1CCOCC1)c(=O)n2C [AZD7648] + C=CCn1c(=O)c2cnc(Nc3ccc(N4CCN(C)CC4)cc3)nc2n1-c1cccc(C(C)(C)O)n1 [AZD1775] (first compound max 10 µM, partner max 1 µM)	0.0382	-0.0686	-0.0433	0.0302	-0.0156	0.0212	0.0085	0.0283	0.0028	-0.0821	-0.0316	-0.0255	-0.0225	0.004	0.013	-0.024	-0.047	0.0128	-0.0316	0.002
CN(C)CCCOc1ccc(-c2ccc3ncc4c(c3c2)n(C2CCOCC2)c(=O)n4C)cn1 [AZD0156] + C[C@@H]1COCCN1C2=NC(=NC(=C2)C3(CC3)[S@](=N)(=O)C)C4=C5C=CNC5=NC=C4 [AZD6738] (first compound max 1 µM, 7x7, partner max 10 µM)	-0.0328	0.0425	-0.0449	0.0161	-0.0295	-0.0126	0.117	-0.0325	0.0568	0.0092	-0.0041	-0.0334	-0.0532	-0.0064	-0.0051	-0.0266	0.0033	-0.0039	0.0016	-0.014
C[C@@H](c1ccc2nccn2c1)n1nnc2ncc(-c3cnn(C)c3)nc21 [Savolitinib] + Cc1c2c(nn1C)CSCc1cc(n(C)n1)CSc1cc(c3ccccc3c1)OCCCc1c(C(=O)O)n(C)c3c-2c(Cl)ccc13 [AZD5991] (first compound max 1 µM, 7x7, partner max 1 µM)	0.0233	-0.0434	-0.0013	-0.0038	0.0448	-0.0166	-0.0168	-0.0785	0.0527	-0.0289	-0.0334	-0.0112	-0.0586	-0.0539	-0.025	-0.0714	-0.0274	-0.0697	-0.0159	-0.0291
CN(CCO)CC[C@H](CSc1ccccc1)Nc1ccc(S(=O)(=O)NC(=O)c2ccc(N3CCC([C@@H](O)c4ccccc4-c4ccc(Cl)cc4)CC3)cc2)cc1S(=O)(=O)C(F)(F)F [AZD4320] + C1CN(CCC1(C(=O)N[C@@H](CCO)C2=CC=C(C=C2)Cl)N)C3=NC=NC4=C3C=CN4 [Capivasertib] (first compound max 1 µM, 7x7, partner max 3 µM)	-0.0059	-0.0354	-0.0434	-0.0276	0.0421	-0.0545	0.0181	-0.0438	-0.0441	-0.0113	-0.0157	-0.0169	-0.0435	-0.0637	-0.0075	0.0243	-0.0158	-0.032	-0.0345	-0.0171
CN(C)CCCOc1ccc(-c2ccc3ncc4c(c3c2)n(C2CCOCC2)c(=O)n4C)cn1 [AZD0156] + C=CCn1c(=O)c2cnc(Nc3ccc(N4CCN(C)CC4)cc3)nc2n1-c1cccc(C(C)(C)O)n1 [AZD1775] (first compound max 1 µM, partner max 1 µM)	-0.106	-0.0064	0.0363	-0.0117	-0.0446	-0.0366	0.0744	-0.0212	0.0314	-0.11	0.0193	-0.0885	-0.0898	-0.0692	-0.0258	-0.0674	-0.0776	-0.0887	0.0097	-0.0122
